From patent US20230339981A1, “KRAS G12D MODULATING COMPOUNDS” (priority 2022, published 2023) come the findings set out here.

The target in assay [1] is GDP-loaded KRAS G12D (Homo sapiens (Human), UniProt P01116, G12D). The assay can be described thus: KRAS G12D (GDP) biochemical assay (TR-FRET probe displacement). The assay is classed as binding. Particulars: 2 hours. The procedure, abridged: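 Compound pre-incubated 30 min with GDP-loaded KRAS G12D in 50 mM Hepes pH 7.4, 150 mM NaCl, 5 mM MgCl2, 0.005% Tween-20, then Eu-streptavidin and TR-FRET probe added. After 2 h at room temperature, TR-FRET ratio read; IC50 is 50% ratio decrease, sigmoidal fit.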
On the technique in general: TR-FRET usually uses a lanthanide donor and a delayed reading to cut background.

For assay [2], the system named is GP2D (KRAS G12D) cells. The assay can be described thus: 2D cell viability assay (CellTiter-Glo). As to conditions: GP2d, 96 h, 4 days. Format: cell-based. The procedure, abridged: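 GP2D (KRAS G12D) cells, 1000/well in RPMI + 10% FBS, were plated onto compound (1:3 DMSO series) and grown 4 days at 37 °C, 5% CO2 in 2D. CellTiter-Glo luminescence was read; EC50 is the concentration giving 50% signal decrease, from sigmoidal fit.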
(Cellular ATP, detected with luciferase, serves as a proxy for viable cell number.)

Chain of GDP-loaded KRAS G12D (P01116-2 other isoform, or with tags, fused parts or gaps G12D): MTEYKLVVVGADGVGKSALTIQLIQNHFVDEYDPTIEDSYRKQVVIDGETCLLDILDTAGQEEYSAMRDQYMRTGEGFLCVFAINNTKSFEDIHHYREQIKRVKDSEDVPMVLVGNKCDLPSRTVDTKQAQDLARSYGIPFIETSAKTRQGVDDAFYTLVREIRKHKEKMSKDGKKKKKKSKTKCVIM

What is called IC50 is the midpoint of a concentration-inhibition curve. The EC50 is the midpoint of the concentration-response curve. Turning to `C#Cc1c(F)ccc2cccc(-c3nc4c5c(nc(OC[C@@]67CCCN6[C@H](COC(C(F)(F)F)C(F)(F)F)CC7)nc5c3F)N3C[C@H]5CC[C@H](N5)[C@H]3CC4)c12` [Example 150, (5aR,6S,9R)-2-(8-ethynyl-7-fluoronaphthalen-1-yl)-1-fluoro-12-(((3S,7aS)-3-(((1,1,1,3,3,3-hexafluoropropan-2-yl)oxy)methyl)tetrahydro-1H-pyrrolizin-7a(5H)-yl)methoxy)-4,5,5a,6,7,8,9,10-octahydro-3,10a,11,13,14-pentaaza-6,9-methanonaphtho[1,8-ab]heptalene], the IC50 in assay [1] is 0.2 nM. The molecule further yielded an EC50 in assay [2] of 47.2 nM.

For the molecule `C#Cc1c(F)ccc2cccc(-c3nc4c5c(nc(OC[C@@]67CCCN6[C@H](COc6ccnc(C(F)(F)F)n6)CC7)nc5c3F)N3C[C@H]5CC[C@H](N5)[C@H]3CC4)c12` [Example 151, (5aR,6S,9R)-2-(8-ethynyl-7-fluoronaphthalen-1-yl)-1-fluoro-12-(((3S,7aS)-3-(((2-(trifluoromethyl)pyrimidin-4-yl)oxy)methyl)tetrahydro-1H-pyrrolizin-7a(5H)-yl)methoxy)-4,5,5a,6,7,8,9,10-octahydro-3,10a,11,13,14-pentaaza-6,9-methanonaphtho[1,8-ab]heptalene], in assay [1], the IC50 was 0.1 nM. In assay [2], a half-maximal effect (EC50) was put at 5 nM.

For the molecule `C#Cc1c(F)ccc2cccc(-c3nc4c5c(nc(OC[C@@]67CCCN6[C@H](COc6cc(C(F)(F)F)ncn6)CC7)nc5c3F)N3C[C@H]5CC[C@H](N5)[C@H]3CC4)c12` [Example 152, (5aR, 6S, 9R)-2-(8-ethynyl-7-fluoronaphthalen-1-yl)-1-fluoro-12-(((3S,7aS)-3-(((6-(trifluoromethyl)pyrimidin-4-yl)oxy)methyl)tetrahydro-1H-pyrrolizin-7a(5H)-yl)methoxy)-4,5,5a,6,7,8,9,10-octahydro-3,10a,11,13,14-pentaaza-6,9-methanonaphtho[1,8-ab]heptalene], in assay [1], the IC50 turned out to be 0.1 nM. The concentration for a half-maximal effect (EC50) in assay [2] came out at 5.4 nM.

Turning to `C#Cc1c(F)ccc2cccc(-c3nc4c5c(nc(OC[C@@]67CCCN6[C@H](COc6cc(C(F)(F)F)ncn6)CC7)nc5c3F)N3C[C@H]5CC[C@H](N5)[C@H]3CCC4)c12` [Example 154, (6aR,7S,10R)-2-(8-ethynyl-7-fluoronanhthalen-1-yl)-1-fluoro-13-(((3S,7aS)-3-(((6-(trifluoromethyl)pyrimidin-4-yl)oxy)methyl)tetrahydro-1H-pyrrolizin-7a(5H)-yl)methoxy)-5,6,6a,7,8,9,10,11-octahydro-4H-3,11a,12,14,15-pentaaza-7,10-methanocyclohepta[4,5]cycloocta[1,2,3-de]naphthalene], in assay [1], the IC50 was 0.1 nM. The molecule further returned an EC50 in assay [2] of 1 nM.

In assay [1], `C#Cc1c(F)ccc2cccc(-c3nc4c5c(nc(OC[C@@]67CCCN6C[C@H](F)C7)nc5c3F)N3C[C@H]5CC[C@H](N5)[C@@H]3[C@@H](C)CC4)c12` [Example 156, (6S,6aS,7S,10R)-2-(8-ethynyl-7-fluoronaphthalen-1-yl)-1-fluoro-13-(((2R,7aS)-2-fluorotetrahydro-1H-pyrrolizin-7a(5H)-yl)methoxy)-6-methyl-5,6,6a,7,8,9,10,11-octahydro-4H-3,11a,12,14,15-pentaaza-7,10-methanocyclohepta[4,5]cycloocta[1,2,3-de]naphthalene] showed an IC50 of 100 nM. In addition, the EC50 in assay [2] turned out to be 100 nM.

On to `C#Cc1c(F)ccc2cccc(-c3nc4c5c(nc(OCC67CCCN6CCC7)nc5c3F)N3C[C@H]5CC[C@H](N5)[C@@H]3[C@@H](C)C4)c12` [Example 157, (5S,5aS,6S,9R)-2-(8-ethynyl-7-fluoronaphthalen-1-yl)-1-fluoro-5-methyl-12-((tetrahydro-1H-pyrrolizin-7a(5H)-yl)methoxy)-4,5,5a,6,7,8,9,10-octahydro-3,10a,11,13,14-pentaaza-6,9-methanonaphtho[1,8-ab]heptalene], for which, in assay [1], the IC50 turned out to be 6.4 nM. For the same molecule, a half-maximal response in assay [2] (EC50) required 29.4 nM.

Turning to `C#Cc1c(F)ccc2cccc(-c3nc4c5c(nc(OCC67CC8(CC8)CN6CC6(CC6)C7)nc5c3F)N3C[C@H]5CC[C@H](N5)[C@@H]3[C@@H](C)C4)c12` [Example 158], the IC50 in assay [1] is 12.5 nM. In assay [2], this molecule returned an EC50 of 100 nM.

Consider `C#Cc1c(F)ccc2cccc(-c3nc4c5c(nc(OC[C@@]67CCCN6C[C@H](F)C7)nc5c3F)N3C[C@H]5CC[C@H](N5)[C@@H]3[C@H](C)CC4)c12` [Example 159, (6R,6aS,7S,10R)-2-(8-ethynyl-7-fluoronaphthalen-1-yl)-1-fluoro-13-(((2R,7aS)-2-fluorotetrahydro-1H-pyrrolizin-7a(5H)-yl)methoxy)-6-methyl-5,6,6a,7,8,9,10,11-octahydro-4H-3,11a,12,14,15-pentaaza-7,10-methanocyclohepta[4,5]cycloocta[1,2,3-de]naphthalene], for which, in assay [1], the IC50 is 100 nM. In assay [2], this molecule displayed an EC50 of 100 nM.

In the case of `C#Cc1c(F)ccc2cc(O)cc(-c3nc4c5c(nc(OCC6(CN7CC[C@H](OC(F)(F)F)C7)CC6)nc5c3F)N3C[C@H]5CC[C@H](N5)[C@H]3CCC4)c12` [Example 162], in assay [1], the IC50 was 0.4 nM. In assay [2], the EC50 came out at 0.5 nM.

As for `C#Cc1c(F)ccc2cc(O)cc(-c3nc4c5c(nc(OC[C@@]67CCCN6[C@H](COCC(F)(F)F)CC7)nc5c3F)N3C[C@H]5CC[C@H](N5)[C@H]3CC4)c12` [Example 163, 5-ethynyl-6-fluoro-4-((5aR,6S,9R)-1-fluoro-12-(((3S,7aS)-3-((2,2,2-trifluoroethoxy)methyl)tetrahydro-1H-pyrrolizin-7a(5H)-yl)methoxy)-4,5,5a,6,7,8,9,10-octahydro-3,10a,11,13,14-pentaaza-6,9-methanonaphtho[1,8-ab]heptalen-2-yl)naphthalen-2-ol], the IC50 in assay [1] is 0.1 nM. A half-maximal response in assay [2] (EC50) required 5.1 nM.

For the molecule `C#Cc1c(F)ccc2cccc(-c3nc4c5c(nc(OC[C@@]67CCCN6[C@H](COCC(F)(F)F)CC7)nc5c3F)N3C[C@H]5CC[C@H](N5)[C@H]3CC4)c12` [Example 164, (5aR,6S,9R)-2-(8-ethynyl-7-fluoronaphthalen-1-yl)-1-fluoro-12-(((3S,7aS)-3-((2,2,2-trifluoroethoxy)methyl)tetrahydro-1H-pyrrolizin-7a(5H)-yl)methoxy)-4,5,5a,6,7,8,9,10-octahydro-3,10a,11,13,14-pentaaza-6,9-methanonaphtho[1,8-ab]heptalene], in assay [1], the IC50 is 0.3 nM. For the same molecule, a half-maximal response in assay [2] (EC50) required 38 nM.

In turn, `C#Cc1c(F)ccc2cccc(-c3nc4c5c(nc(OC[C@@]67CCCN6C[C@H](F)C7)nc5c3F)N3C[C@H]5CC[C@H](N5)[C@H]3CC[C@@H]4C)c12` [Example 174, (4S,6aR,7S,10R)-2-(8-ethynyl-7-fluoronaphthalen-1-yl)-1-fluoro-13-(((2R,7aS)-2-fluorotetrahydro-1H-pyrrolizin-7a(5H)-yl)methoxy)-4-methyl-5,6,6a,7,8,9,10,11-octahydro-4H-3,11a,12,14,15-pentaaza-7,10-methanocyclohepta[4,5]cycloocta[1,2,3-de]naphthalene] registered a concentration for half-maximal inhibition (IC50) in assay [1] of 5.7 nM. Further, the EC50 in assay [2] was 100 nM.

The molecule `C#Cc1c(F)ccc2cccc(-c3nc4c5c(nc(OCC6(CN7CCC8(CC7)CC8)CC6)nc5c3F)N3C[C@H]5CC[C@H](N5)[C@H]3CCC4)c12` [Example 178, (6aR,7S,10R)-13-((1-((6-azaspiro[2.5]octan-6-yl)methyl)cyclopropyl)methoxy)-2-(8-ethynyl-7-fluoronaphthalen-1-yl)-1-fluoro-5,6,6a,7,8,9,10,11-octahydro-4H-3,11a,12,14,15-pentaaza-7,10-methanocyclohepta[4,5]cycloocta[1,2,3-de]naphthalene] registered an IC50 in assay [1] of 0.7 nM. In assay [2], this molecule had an EC50 of 37.4 nM.

As for `C#Cc1c(F)ccc2cc(O)cc(-c3nc4c5c(nc(OCC6(CN7CCC(Oc8ccnc(C(F)(F)F)n8)CC7)CC6)nc5c3F)N3C[C@H]5CC[C@H](N5)[C@H]3CC4)c12` [Example 180, 5-ethynyl-6-fluoro-4-((5aR,6S,9R)-1-fluoro-12-((1-((4-((2-(trifluoromethyl)pyrimidin-4-yl)oxy)piperidin-1-yl)methyl)cyclopropyl)methoxy)-4,5,5a,6,7,8,9,10-octahydro-3,10a,11,13,14-pentaaza-6,9-methanonaphtho[1,8-ab]heptalen-2-yl)naphthalen-2-ol], the IC50 in assay [1] was determined as 0.8 nM. For the same molecule, in assay [2], the EC50 came to 5.1 nM.

`C#Cc1c(F)ccc2cccc(-c3nc4c5c(nc(OC[C@@]67CCCN6C[C@H](F)C7)nc5c3F)N3C[C@H]5CC[C@H](N5)[C@H]3C[C@H]4CC)c12` [Example 182, (4R,5aR,6S,9R)-4-ethyl-2-(8-ethynyl-7-fluoronaphthalen-1-yl)-1-fluoro-12-(((2R,7aS)-2-fluorotetrahydro-1H-pyrrolizin-7a(5H)-yl)methoxy)-4,5,5a,6,7,8,9,10-octahydro-3,10a,11,13,14-pentaaza-6,9-methanonaphtho[1,8-ab]heptalene]: the concentration for half-maximal inhibition (IC50) in assay [1] was found to be 0.4 nM. In addition, the EC50 in assay [2] turned out to be 87 nM.

Regarding `C#Cc1c(F)ccc2cccc(-c3nc4c5c(nc(OC[C@@]67CCCN6C[C@H](F)C7)nc5c3F)N3C[C@H]5CC[C@H](N5)[C@H]3[C@H](C)C4)c12` [Example 184, (5R,5aR,6S,9R)-2-(8-ethynyl-7-fluoronaphthalen-1-yl)-1-fluoro-12-(((2R,7aS)-2-fluorotetrahydro-1H-pyrrolizin-7a(5H)-yl)methoxy)-5-methyl-4,5,5a,6,7,8,9,10-octahydro-3,10a,11,13,14-pentaaza-6,9-methanonaphtho[1,8-ab]heptalene], the half-inhibitory concentration (IC50) in assay [1] came out at 0.7 nM. Besides, in assay [2], the midpoint of the response, the EC50, lay at 19 nM.
